From ChEMBL document CHEMBL5375995, “Discovery and Mechanistic Study of Novel Mycobacterium tuberculosis ClpP1P2 Inhibitors” (J Med Chem, 2023)
In brackets after ≈: the same amount, converted by molar mass. Activity calls are given as the source filed them. The rule behind the calls is not given here.

Key:
[1] = system: Pseudomonas aeruginosa; test: Antibacterial activity against Pseudomonas aeruginosa assessed as bacterial growth inhibition incubated for 24 hrs by broth microdilution method; type: functional
[2] = molecular target: ATP-dependent Clp protease ATP-binding subunit ClpC1 (Mycobacterium tuberculosis) (UniProt P9WPC9); test: Inhibition of N-terminal His6-tagged full-length Mtb ClpC1 ATPase activity expressed in Escherichia coli BL21(DE3) at 100 uM in presence of PK/LDH/ATP/NADH by spectrophotometry
Chain of ATP-dependent Clp protease ATP-binding subunit ClpC1 (Mycobacterium tuberculosis) (P9WPC9 whole entry, the tested form may be a part): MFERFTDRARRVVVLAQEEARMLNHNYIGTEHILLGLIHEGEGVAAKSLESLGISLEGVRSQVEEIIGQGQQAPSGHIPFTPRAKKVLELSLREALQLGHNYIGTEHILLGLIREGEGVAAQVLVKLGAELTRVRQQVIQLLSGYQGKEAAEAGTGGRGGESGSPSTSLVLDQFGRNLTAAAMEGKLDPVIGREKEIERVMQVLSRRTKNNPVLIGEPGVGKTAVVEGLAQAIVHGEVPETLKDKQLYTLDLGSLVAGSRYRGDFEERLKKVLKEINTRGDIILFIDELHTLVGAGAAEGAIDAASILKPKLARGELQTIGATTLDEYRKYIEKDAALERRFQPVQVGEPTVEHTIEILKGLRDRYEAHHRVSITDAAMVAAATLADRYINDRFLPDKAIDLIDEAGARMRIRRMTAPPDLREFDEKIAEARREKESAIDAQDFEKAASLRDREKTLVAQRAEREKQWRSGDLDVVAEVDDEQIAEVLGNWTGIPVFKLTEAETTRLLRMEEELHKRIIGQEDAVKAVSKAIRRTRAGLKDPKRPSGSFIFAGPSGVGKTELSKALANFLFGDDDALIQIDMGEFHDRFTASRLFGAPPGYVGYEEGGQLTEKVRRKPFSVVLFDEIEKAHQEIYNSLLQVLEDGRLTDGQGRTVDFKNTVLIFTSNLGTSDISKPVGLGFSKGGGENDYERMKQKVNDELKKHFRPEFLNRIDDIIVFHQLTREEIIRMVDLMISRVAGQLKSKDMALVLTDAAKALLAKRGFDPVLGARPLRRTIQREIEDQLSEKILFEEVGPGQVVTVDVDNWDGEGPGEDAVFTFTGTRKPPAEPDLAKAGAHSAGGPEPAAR

[3] = Inhibition of full-length Staphylococcus aureus ClpP complex/Escherichia coli ClpX delta N mutant (62 to 425 residues) expressed in Escherichia coli BL21(DE3) using FITC-casein as substrate measured for 1 hr in presence of Bz-LL/ATP by fluorescence based assay
[4] = Inhibition of full-length Pseudomonas aeruginosa ClpP1 expressed in Escherichia coli BL21(DE3) using Suc-LY-AMC as substrate measured for 60 mins in presence of Bz-LL by fluorescence based assay
[5] = Inhibition of N-terminal His6-SUMO-tagged Mycobacterium smegmatis ClpP1 (3 to 200 residues)/P2 (17 to 218 residues) expressed in Escherichia coli BL21(DE3) using Z-Gly-Gly-Leu-AM as substrate measured for 60 mins in presence of Bz-LL by fluorescence based assay; design: species or system Mycolicibacterium smegmatis
[6] = system: Mycolicibacterium smegmatis; test: Antibacterial activity against wild-type Mycobacterium smegmatis mc2 155 assessed as bacterial growth inhibition incubated for 2 days by Alamar blue staining based assay; type: functional; details: mc2 155, 48 h, time 2 day
[7] = Inhibition of full-length Mtb H37Rv ClpP complex expressed in Escherichia coli BL21(DE3) using FITC-casein as substrate measured for 1 hr in presence of Bz-LL/ATP by fluorescence based assay; design: species or system Mycobacterium tuberculosis
[8] = system: Staphylococcus aureus; test: Antibacterial activity against Staphylococcus aureus assessed as bacterial growth inhibition incubated for 24 hrs by broth microdilution method; type: functional
[9] = Selectivity index, ratio of IC50 for full-length Staphylococcus aureus ClpP complex expressed in Escherichia coli BL21(DE3) using Suc-LY-AMC as substrate to IC50 for N-terminal His6-SUMO-tagged Mtb ClpP1 (7 to 200 residues)/ClpP2 (13 to 214 residues) complex expressed in Escherichia coli BL21(DE3)
[10] = Selectivity index, ratio of IC50 for full-length Pseudomonas aeruginosa ClpP1 expressed in Escherichia coli BL21(DE3) using Suc-LY-AMC as substrate to IC50 for N-terminal His6-SUMO-tagged Mtb ClpP1 (7 to 200 residues)/ClpP2 (13 to 214 residues) complex expressed in Escherichia coli BL21(DE3)
[11] = molecular target: T1, ClpP1P2 (Mycobacterium tuberculosis (strain ATCC 25618 / H37Rv), UniProt P9WPC3+P9WPC5); test: Inhibition of N-terminal His6-SUMO-tagged Mtb ClpP1 (7 to 200 residues)/ClpP2 (13 to 214 residues) complex expressed in Escherichia coli BL21(DE3) using Z-Gly-Gly-Leu-AMC as substrate measured for 60 mins in presence of Bz-LL by fluorescence based assay
T1 sequence (P9WPC5 whole entry, the tested form may be a part): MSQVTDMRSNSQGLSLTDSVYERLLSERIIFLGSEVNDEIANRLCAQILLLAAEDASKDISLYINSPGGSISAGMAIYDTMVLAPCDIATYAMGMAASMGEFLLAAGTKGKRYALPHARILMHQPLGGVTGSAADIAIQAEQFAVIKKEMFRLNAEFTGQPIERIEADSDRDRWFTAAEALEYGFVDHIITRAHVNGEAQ
T1 sequence (P9WPC3 whole entry, the tested form may be a part): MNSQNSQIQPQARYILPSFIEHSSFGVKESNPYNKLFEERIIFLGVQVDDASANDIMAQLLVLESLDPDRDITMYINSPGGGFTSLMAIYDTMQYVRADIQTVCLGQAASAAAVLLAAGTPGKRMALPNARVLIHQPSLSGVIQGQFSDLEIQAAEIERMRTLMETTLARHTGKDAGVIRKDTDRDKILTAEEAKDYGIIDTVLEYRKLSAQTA

[12] = Selectivity index, ratio of IC50 for Mtb H37Rv ClpP complex using Z-Gly-Gly-Leu-AMC as substrate to IC50 for N-terminal His6-SUMO-tagged Mtb ClpP1 (7 to 200 residues)/ClpP2 (13 to 214 residues) complex expressed in Escherichia coli BL21(DE3)
[13] = Inhibition of N-terminal His6-SUMO-tagged Mycobacterium smegmatis ClpP1 (3 to 200 residues)/P2 (17 to 218 residues) expressed in Escherichia coli BL21(DE3)/C1 using Z-Gly-Gly-Leu-AM as substrate measured for 60 mins in presence of Bz-LL by fluorescence based assay; design: species or system Mycolicibacterium smegmatis
[14] = Selectivity index, ratio of IC50 for full-length Mtb H37Rv ClpP complex expressed in Escherichia coli BL21(DE3) using FITC-casein as substrate to IC50 for N-terminal His6-SUMO-tagged Mtb ClpP1 (7 to 200 residues)/ClpP2 (13 to 214 residues) complex expressed in Escherichia coli BL21(DE3)
[15] = molecular target: ATP-dependent Clp protease ATP-binding subunit ClpC1 (Mycobacterium tuberculosis) (UniProt P9WPC9); test: Inhibition of N-terminal His6-tagged full-length Mtb ClpC1 creatine kinase activity expressed in Escherichia coli BL21(DE3) using creatine phosphate as substrate at 100 uM preincubated for 10 mins followed by substrate addition measured after 10 mins in presence of ADP by Kinase-Glo assay; details: time 20.0 min
[16] = molecular target: T2, ClpP1P2 (Mycobacterium tuberculosis (strain ATCC 25618 / H37Rv)) (UniProt P9WPC5+P9WPC3); test: Inhibition of wild-type Mtb ClpP1 expressed in Escherichia coli BL21(DE3)
[17] = system: Mycolicibacterium smegmatis; test: Antibacterial activity against Mycobacterium smegmatis mc2 155 harboring ClpX knockout assessed as bacterial growth inhibition incubated for 2 days by Alamar blue staining based assay; type: functional; details: mc2 155, 48 h, time 2 day
[18] = Inhibition of full-length human ClpP complex ([…]) expressed in Escherichia coli BL21(DE3) using FITC-casein as substrate measured for 1 hr in presence of Bz-LL/ONC212/ATP by fluorescence based assay
[19] = system: Escherichia coli; test: Antibacterial activity against Escherichia coli assessed as bacterial growth inhibition incubated for 24 hrs by broth microdilution method; type: functional
[20] = system: Mycobacterium tuberculosis; test: Antibacterial activity against Mycobacterium tuberculosis H37Rv assessed as bacterial growth inhibition incubated for 24 hrs by broth microdilution method; type: functional
[21] = Inhibition of full-length Escherichia coli ClpP complex/Escherichia coli ClpX delta N mutant (62 to 425 residues) expressed in Escherichia coli BL21(DE3) using FITC-casein as substrate measured for 1 hr in presence of Bz-LL/ATP by fluorescence based assay
[22] = system: Mycolicibacterium smegmatis; test: Antibacterial activity against Mycobacterium smegmatis mc2 155 harboring ClpC1 knockout assessed as bacterial growth inhibition incubated for 2 days by Alamar blue staining based assay; type: functional; details: mc2 155, 48 h, time 2 day
[23] = (§1) Selectivity index, ratio of IC50 for full-length human ClpP complex ([…]) expressed in Escherichia coli BL21(DE3) using FITC-casein as substrate to IC50 for N-terminal His6-SUMO-tagged Mtb ClpP1 (7 to 200 residues)/ClpP2 (13 to 214 residues) complex expressed in Escherichia coli BL21(DE3)
[24] = molecular target: T1, ClpP1P2; test: Binding affinity to N-terminal His6-SUMO-tagged Mtb ClpP1 (7 to 200 residues)/ClpP2 (13 to 214 residues) complex expressed in Escherichia coli BL21(DE3) assessed as increase in thermal stability measured at 25 to 110 degreeC in presence of Bz-LL by DSF assay
[25] = Selectivity index, ratio of IC50 for full-length Escherichia coli ClpP complex expressed in Escherichia coli BL21(DE3) using Suc-LY-AMC as substrate to IC50 for N-terminal His6-SUMO-tagged Mtb ClpP1 (7 to 200 residues)/ClpP2 (13 to 214 residues) complex expressed in Escherichia coli BL21(DE3)
[26] = system: Mycobacterium tuberculosis; test: Antibacterial activity against Mycobacterium tuberculosis H37Ra assessed as bacterial growth inhibition incubated for 24 hrs by broth microdilution method; type: functional
[27] = Inhibition of full-length human ClpP complex ([…]) expressed in Escherichia coli BL21(DE3) using Ac-WLA-AMC as substrate measured for 60 mins in presence of Bz-LL by fluorescence based assay
[28] = Inhibition of full-length Staphylococcus aureus ClpP complex expressed in Escherichia coli BL21(DE3) using Suc-LY-AMC as substrate measured for 60 mins in presence of Bz-LL by fluorescence based assay
[29] = as §1, with “Ac-WLA-AMC” for “FITC-casein”
[30] = Inhibition of full-length Escherichia coli ClpP complex expressed in Escherichia coli BL21(DE3) using Suc-LY-AMC as substrate incubated for 60 mins in presence of Bz-LL by fluorescence based assay
[31] = molecular target: T2, ClpP1P2 (Mycobacterium tuberculosis (strain ATCC 25618 / H37Rv)); test: Inhibition of N-terminal His6-SUMO-tagged Mtb ClpP1 (7 to 200 residues)/ClpP2 (13 to 214 residues) complex expressed in Escherichia coli BL21(DE3) using Z-Gly-Gly-Leu-AMC as substrate at 10 uM incubated for 40 mins in presence of Bz-LL by fluorescence based assay
[32] = molecular target: T1, ClpP1P2; test: Inhibition of N-terminal His6-SUMO-tagged Mtb ClpP1 (7 to 200 residues)/ClpP2 (13 to 214 residues) complex expressed in Escherichia coli BL21(DE3) using FITC-casein as substrate measured for 1 hr in presence of Bz-LL/ATP by fluorescence based assay
[33] = Inhibition of Staphylococcus aureus […] complex expressed in Escherichia coli BL21(DE3) using GFP-ssrA as substrate incubated for 3 hrs in presence of Bz-LL/ATP/ONC212 by Coomassie blue staining based assay
[34] = system: Mycobacterium tuberculosis; test: Binding affinity to N-terminal His6-SUMO-tagged Mtb ClpP1 (7 to 200 residues)/ClpP2 (13 to 214 residues) complex expressed in Escherichia coli BL21(DE3) assessed as reduction in fluorescence intensity at 25 to 100 uM incubated for 30 mins in presence of Bz-LL by spectrophotometry relative to control; design: scale not given: the % may be the effect or the level left; details: dose 25-100 µM
[35] = molecular target: T2, ClpP1P2 (Mycobacterium tuberculosis (strain ATCC 25618 / H37Rv)); test: Inhibition of N-terminal His6-SUMO-tagged Mtb ClpP1 (7 to 200 residues)/ClpP2 (13 to 214 residues) complex expressed in Escherichia coli BL21(DE3) using GFP-ssrA as substrate measured for 1 hr in presence of Bz-LL/ATP by fluorescence based assay
[36] = molecular target: T1, ClpP1P2; test: Inhibition of N-terminal His6-SUMO-tagged Mtb ClpP1 (7 to 200 residues)/ClpP2 (13 to 214 residues) complex expressed in Escherichia coli BL21(DE3) using GFP-ssrA as substrate incubated for 3 hrs in presence of Bz-LL/ATP by Coomassie blue staining based assay
[37] = system: Mycolicibacterium smegmatis; test: Antibacterial activity against wild-type Mycobacterium smegmatis mc2 155 harboring ClpP-tetoff mutant assessed as bacterial growth inhibition upto 512 uM incubated for 2 days in presence of ATc by Alamar blue staining based assay; type: functional, organism-based; details: time 2.0 day
[38] = system: Mycolicibacterium smegmatis; test: Antibacterial activity against wild-type Mycobacterium smegmatis mc2 155 assessed as bacterial growth inhibition upto 512 uM incubated for 2 days in presence of ATc by Alamar blue staining based assay; type: functional, organism-based; details: time 2.0 day
[39] = (§2) Selectivity index, ratio of IC50 for full-length human ClpP complex ([…]) expressed in Escherichia coli BL21(DE3) using FITC-casein as substrate to IC50 for N-terminal His6-SUMO-tagged Mtb ClpP1 (7 to 200 residues)/ClpP2 (13 to 214 residues) complex expressed in Escherichia coli BL21(DE3) using Z-Gly-Gly-Leu-AMC as substrate
[40] = molecular target: T2, ClpP1P2 (Mycobacterium tuberculosis (strain ATCC 25618 / H37Rv)); test: Binding affinity to N-terminal His6-SUMO-tagged Mtb ClpP1 (7 to 200 residues) expressed in Escherichia coli BL21(DE3) assessed as reduction in fluorescence intensity at 25 to 100 uM incubated for 30 mins in presence of Bz-LL by spectrophotometry relative to control; design: scale not given: the % may be the effect or the level left; details: dose 25-100 µM
[41] = as §2, with “Ac-WLA-AMC” for “FITC-casein”

In the case of `COc1cc2c(Oc3ccc4[nH]c(C)cc4c3F)ncnc2cc1OCCCN1CCCC1` [CEDIRANIB], the MIC [1] is reported as over 226 µM, the inhibition [2] is reported as “inactive” and the IC50 [3] is reported as 234 µM. For the same compound, the IC50 [4] was over 500 µM, the IC50 [5] was 6.2 µM and the MIC [6] was 113 µM. It also gave an IC50 [7] of 24.2 µM, an MIC [8] of over 226 µM and a Ratio IC50 [9] of over 170. The Ratio IC50 [10] was over 170, the IC50 [11] was 2.8 µM and the Ratio IC50 [12] was 1. For the same compound, the IC50 [13] was 43.9 µM, the Ratio IC50 [14] was 14.8 and the inhibition [15] was “inactive”. The inhibition [16] was “inactive”, the MIC [17] was 56.4 µg/mL (≈ 125 µM) and the IC50 [18] was 273 µM. For the same compound, the MIC [19] was over 226 µM, the MIC [20] was 28.2 µM (≈ 12.7 µg/mL) and the IC50 [21] was 358 µM. The MIC [22] was 56.4 µg/mL (≈ 125 µM), the Ratio IC50 [23] was 11.3 and the EC50 [24] was 29 µM. For the same compound, the Ratio IC50 [25] was over 170, the MIC [26] was 14.1 µM (≈ 6.35 µg/mL) and the IC50 [27] was 37.5 µM. For the same compound, the IC50 [28] was over 500 µM, the Ratio IC50 [29] was 13.3 and the IC50 [30] was over 500 µM. For the same compound, the inhibition [31] was “Active” and the IC50 [32] was 45.1 µM.

For `COc1cc2c(Oc3ccc4[nH]c(C)cc4c3F)ncnc2cc1OCCCN1CCC(c2ccc(C(N)=O)cc2)CC1`, the inhibition [2] was “inactive”, the IC50 [33] was 193 µM and the IC50 [5] was 1.8 µM. For the same compound, the MIC [6] was over 439 µg/mL, the Activity [34] was 60% and the inhibition [35] was “Active”. It also gave an IC50 [11] of 2.6 µM, an IC50 [36] of over 100 µM and an IC50 [13] of 22.1 µM. The “growth inhibition (GI)” value [37] was “Active”, the inhibition [15] was “inactive” and the MIC [17] was 85.7 µg/mL (≈ 147 µM). The MIC [22] was 42.8 µg/mL (≈ 73.3 µM), the “growth inhibition (GI)” value [38] was “Active” and the EC50 [24] was 12.1 µM. The MIC [26] was 12.5 µM (≈ 7.3 µg/mL), the Ratio IC50 [39] was 18.4 and the Activity [40] was 10%. For the same compound, the Ratio IC50 [41] was 12.1 and the IC50 [32] was 8.9 µM.
